Test results as given in publication PMC4457528, “Identification of Novel Small Molecule Inhibitors of Oncogenic RET Kinase” (PLoS ONE, 2015).
Like-named read-outs stand apart in the source and are kept apart here.

Legend:
Test in all cases: KinomeScan kinase panel, single concentration 10 µM
Assay type in all cases: binding
[1] = molecular target: T1, KinomeScan kinase panel (Homo sapiens, UniProt O75116); settings: read-out: score (%)
T1 construct: purchased DiscoveRx (KinomeScan)

[2] = molecular target: T2, KinomeScan kinase panel (Homo sapiens, UniProt Q8N5S9); settings: CAMKK1, 10 µM; read-out: score (%)
T2 construct: purchased DiscoveRx (KinomeScan)
T2 sequence (Q8N5S9 whole entry): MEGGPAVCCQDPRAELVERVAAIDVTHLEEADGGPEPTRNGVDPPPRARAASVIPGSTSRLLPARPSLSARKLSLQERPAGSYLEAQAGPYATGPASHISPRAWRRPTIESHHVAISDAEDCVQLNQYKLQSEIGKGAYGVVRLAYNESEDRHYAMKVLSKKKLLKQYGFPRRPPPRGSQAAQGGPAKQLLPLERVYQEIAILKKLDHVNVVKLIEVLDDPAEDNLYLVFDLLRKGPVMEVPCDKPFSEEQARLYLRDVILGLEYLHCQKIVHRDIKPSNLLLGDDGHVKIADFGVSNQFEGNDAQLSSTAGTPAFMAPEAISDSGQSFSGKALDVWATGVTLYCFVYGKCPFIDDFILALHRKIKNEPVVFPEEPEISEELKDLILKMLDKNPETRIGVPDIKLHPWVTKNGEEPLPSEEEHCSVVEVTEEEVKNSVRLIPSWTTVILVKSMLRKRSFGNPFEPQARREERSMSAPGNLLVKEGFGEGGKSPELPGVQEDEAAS

[3] = molecular target: T3, KinomeScan kinase panel (Homo sapiens, UniProt Q9NQU5); settings: PAK6, 10 µM; read-out: score (%)
T3 construct: purchased DiscoveRx (KinomeScan)
T3 sequence (Q9NQU5 whole entry): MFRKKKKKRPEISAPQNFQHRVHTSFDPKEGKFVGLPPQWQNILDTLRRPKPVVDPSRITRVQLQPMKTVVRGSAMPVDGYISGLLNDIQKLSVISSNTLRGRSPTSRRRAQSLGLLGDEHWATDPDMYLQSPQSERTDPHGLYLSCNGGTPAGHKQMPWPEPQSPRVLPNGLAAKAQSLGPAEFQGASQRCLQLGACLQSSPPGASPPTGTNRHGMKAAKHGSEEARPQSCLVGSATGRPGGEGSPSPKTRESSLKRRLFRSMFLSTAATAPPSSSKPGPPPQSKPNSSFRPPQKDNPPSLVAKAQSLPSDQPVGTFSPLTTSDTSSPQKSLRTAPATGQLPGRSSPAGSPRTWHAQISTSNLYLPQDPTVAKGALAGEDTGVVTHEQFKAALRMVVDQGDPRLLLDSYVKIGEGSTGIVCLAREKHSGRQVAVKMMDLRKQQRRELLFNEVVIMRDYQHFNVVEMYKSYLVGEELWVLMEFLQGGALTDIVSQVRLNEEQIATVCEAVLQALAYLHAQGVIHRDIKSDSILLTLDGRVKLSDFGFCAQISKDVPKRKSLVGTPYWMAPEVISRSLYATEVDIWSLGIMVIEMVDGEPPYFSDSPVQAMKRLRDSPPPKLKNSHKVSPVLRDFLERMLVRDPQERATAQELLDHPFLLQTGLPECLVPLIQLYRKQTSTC

[4] = molecular target: T4, KinomeScan kinase panel (Homo sapiens, UniProt Q2M2I8); settings: AAK1, 10 µM; read-out: score (%)
T4 construct: purchased DiscoveRx (KinomeScan)
T4 sequence (Q2M2I8 whole entry): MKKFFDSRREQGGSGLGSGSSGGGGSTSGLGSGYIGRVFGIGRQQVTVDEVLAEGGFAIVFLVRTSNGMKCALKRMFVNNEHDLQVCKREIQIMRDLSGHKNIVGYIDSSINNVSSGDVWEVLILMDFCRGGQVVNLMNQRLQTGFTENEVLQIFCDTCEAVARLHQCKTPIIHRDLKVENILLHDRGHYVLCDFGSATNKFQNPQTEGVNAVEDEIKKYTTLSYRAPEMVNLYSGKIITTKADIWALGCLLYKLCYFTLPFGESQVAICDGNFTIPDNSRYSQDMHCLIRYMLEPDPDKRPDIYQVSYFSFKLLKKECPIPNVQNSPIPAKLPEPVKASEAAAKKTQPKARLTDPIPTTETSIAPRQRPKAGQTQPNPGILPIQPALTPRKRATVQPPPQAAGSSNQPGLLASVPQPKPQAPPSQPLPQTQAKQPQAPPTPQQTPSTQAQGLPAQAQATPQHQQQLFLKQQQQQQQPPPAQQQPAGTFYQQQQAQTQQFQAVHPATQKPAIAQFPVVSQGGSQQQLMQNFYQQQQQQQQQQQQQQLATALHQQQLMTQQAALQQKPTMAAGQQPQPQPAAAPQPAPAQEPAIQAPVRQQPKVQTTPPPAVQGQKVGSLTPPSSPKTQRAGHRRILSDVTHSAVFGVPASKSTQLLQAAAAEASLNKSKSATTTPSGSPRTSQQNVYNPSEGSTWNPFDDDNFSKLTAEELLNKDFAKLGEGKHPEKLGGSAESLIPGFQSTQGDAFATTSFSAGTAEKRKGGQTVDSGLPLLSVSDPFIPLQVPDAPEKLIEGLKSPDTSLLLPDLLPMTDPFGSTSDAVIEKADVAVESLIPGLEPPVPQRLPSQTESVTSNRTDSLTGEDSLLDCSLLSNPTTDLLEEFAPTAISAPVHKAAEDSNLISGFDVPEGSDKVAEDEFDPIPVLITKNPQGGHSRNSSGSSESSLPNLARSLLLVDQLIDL

[5] = molecular target: T5, KinomeScan kinase panel (Homo sapiens, UniProt Q13153); settings: PAK1, 10 µM; read-out: score (%)
T5 construct: purchased DiscoveRx (KinomeScan)
T5 sequence (Q13153 whole entry): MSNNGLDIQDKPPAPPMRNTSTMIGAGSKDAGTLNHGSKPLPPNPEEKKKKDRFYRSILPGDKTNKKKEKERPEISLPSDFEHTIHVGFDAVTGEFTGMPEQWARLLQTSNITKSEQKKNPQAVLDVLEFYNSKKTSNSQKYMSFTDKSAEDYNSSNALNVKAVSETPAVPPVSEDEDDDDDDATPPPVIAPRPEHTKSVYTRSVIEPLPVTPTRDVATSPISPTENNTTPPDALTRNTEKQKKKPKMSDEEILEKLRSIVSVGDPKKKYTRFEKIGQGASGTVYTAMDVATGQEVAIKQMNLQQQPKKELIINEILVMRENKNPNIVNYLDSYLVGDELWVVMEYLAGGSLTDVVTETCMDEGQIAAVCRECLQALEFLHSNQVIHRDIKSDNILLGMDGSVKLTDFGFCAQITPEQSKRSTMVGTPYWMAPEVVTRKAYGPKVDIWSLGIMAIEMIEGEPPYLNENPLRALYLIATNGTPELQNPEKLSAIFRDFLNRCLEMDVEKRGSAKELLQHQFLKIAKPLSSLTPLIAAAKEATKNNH

[6] = molecular target: T6, KinomeScan kinase panel (Homo sapiens, UniProt O75582); settings: 10 µM, read-out: score (%)
T6 construct: purchased DiscoveRx (KinomeScan)
T6 sequence (O75582 whole entry): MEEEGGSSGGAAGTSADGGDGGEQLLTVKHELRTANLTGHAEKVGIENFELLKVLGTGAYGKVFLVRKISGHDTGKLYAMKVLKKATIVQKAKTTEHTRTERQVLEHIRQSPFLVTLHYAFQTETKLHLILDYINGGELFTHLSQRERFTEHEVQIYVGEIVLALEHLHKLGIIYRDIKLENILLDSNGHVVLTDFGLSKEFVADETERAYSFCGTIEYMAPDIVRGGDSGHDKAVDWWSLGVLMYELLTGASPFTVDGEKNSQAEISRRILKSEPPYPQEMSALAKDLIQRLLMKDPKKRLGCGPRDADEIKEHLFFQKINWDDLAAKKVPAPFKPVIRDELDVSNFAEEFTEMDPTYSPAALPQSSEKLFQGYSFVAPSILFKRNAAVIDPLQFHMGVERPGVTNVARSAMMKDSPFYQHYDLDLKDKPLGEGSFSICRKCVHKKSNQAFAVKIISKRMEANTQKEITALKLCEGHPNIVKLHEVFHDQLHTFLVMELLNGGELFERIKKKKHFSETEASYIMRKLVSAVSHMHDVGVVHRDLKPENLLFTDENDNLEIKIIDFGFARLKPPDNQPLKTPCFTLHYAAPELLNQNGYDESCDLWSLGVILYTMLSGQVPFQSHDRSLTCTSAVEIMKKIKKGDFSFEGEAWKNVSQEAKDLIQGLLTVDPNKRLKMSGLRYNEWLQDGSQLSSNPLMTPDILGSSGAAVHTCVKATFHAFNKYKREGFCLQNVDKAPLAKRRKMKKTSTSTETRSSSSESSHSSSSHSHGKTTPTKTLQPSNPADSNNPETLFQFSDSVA

[7] = molecular target: T7, KinomeScan kinase panel (Homo sapiens, UniProt Q16539); settings: p38-alpha, 10 µM
T7 construct: purchased DiscoveRx (KinomeScan)
T7 sequence (Q16539 whole entry): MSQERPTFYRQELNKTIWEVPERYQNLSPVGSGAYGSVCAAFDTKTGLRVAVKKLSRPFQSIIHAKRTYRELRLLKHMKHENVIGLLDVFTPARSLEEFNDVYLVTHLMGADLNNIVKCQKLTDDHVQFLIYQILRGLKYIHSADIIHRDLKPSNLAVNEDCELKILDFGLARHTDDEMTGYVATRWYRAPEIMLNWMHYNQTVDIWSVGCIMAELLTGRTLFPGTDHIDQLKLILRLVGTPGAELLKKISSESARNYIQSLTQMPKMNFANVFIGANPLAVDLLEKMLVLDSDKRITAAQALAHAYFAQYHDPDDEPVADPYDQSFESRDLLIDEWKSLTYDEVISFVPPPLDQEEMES

[8] = molecular target: T8, KinomeScan kinase panel (Homo sapiens, UniProt Q13873); settings: BMPR2, 10 µM
T8 construct: purchased DiscoveRx (KinomeScan)
T8 sequence (Q13873 27-1038): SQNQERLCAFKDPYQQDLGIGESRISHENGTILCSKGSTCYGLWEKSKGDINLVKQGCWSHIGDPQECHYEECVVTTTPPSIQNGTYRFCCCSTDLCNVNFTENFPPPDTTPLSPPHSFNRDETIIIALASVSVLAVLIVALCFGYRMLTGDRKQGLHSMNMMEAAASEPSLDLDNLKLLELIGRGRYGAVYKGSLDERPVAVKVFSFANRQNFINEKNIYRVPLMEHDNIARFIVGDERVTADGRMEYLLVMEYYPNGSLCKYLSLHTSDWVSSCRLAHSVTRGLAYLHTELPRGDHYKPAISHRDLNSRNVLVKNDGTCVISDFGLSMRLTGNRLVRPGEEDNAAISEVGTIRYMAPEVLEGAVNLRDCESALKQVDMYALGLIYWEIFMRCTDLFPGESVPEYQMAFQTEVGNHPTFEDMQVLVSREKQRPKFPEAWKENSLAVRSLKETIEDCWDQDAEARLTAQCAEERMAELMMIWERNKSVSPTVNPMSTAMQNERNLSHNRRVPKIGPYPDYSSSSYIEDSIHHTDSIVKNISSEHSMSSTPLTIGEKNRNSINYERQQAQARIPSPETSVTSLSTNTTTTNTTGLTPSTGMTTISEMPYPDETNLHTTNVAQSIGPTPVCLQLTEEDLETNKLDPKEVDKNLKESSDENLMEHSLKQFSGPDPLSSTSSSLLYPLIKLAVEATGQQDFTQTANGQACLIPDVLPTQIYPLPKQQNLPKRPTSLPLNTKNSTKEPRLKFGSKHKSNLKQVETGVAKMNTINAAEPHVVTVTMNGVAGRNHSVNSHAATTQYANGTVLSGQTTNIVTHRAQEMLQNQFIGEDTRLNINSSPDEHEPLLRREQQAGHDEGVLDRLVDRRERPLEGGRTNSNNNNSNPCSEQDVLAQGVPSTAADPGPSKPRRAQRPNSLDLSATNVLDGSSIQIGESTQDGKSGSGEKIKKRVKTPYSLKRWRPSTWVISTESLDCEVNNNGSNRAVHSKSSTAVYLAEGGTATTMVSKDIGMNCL

[9] = molecular target: T9, KinomeScan kinase panel (Homo sapiens, UniProt Q9NRP7); settings: read-out: score (%)
T9 construct: purchased DiscoveRx (KinomeScan)
T9 sequence (Q9NRP7 1-1315): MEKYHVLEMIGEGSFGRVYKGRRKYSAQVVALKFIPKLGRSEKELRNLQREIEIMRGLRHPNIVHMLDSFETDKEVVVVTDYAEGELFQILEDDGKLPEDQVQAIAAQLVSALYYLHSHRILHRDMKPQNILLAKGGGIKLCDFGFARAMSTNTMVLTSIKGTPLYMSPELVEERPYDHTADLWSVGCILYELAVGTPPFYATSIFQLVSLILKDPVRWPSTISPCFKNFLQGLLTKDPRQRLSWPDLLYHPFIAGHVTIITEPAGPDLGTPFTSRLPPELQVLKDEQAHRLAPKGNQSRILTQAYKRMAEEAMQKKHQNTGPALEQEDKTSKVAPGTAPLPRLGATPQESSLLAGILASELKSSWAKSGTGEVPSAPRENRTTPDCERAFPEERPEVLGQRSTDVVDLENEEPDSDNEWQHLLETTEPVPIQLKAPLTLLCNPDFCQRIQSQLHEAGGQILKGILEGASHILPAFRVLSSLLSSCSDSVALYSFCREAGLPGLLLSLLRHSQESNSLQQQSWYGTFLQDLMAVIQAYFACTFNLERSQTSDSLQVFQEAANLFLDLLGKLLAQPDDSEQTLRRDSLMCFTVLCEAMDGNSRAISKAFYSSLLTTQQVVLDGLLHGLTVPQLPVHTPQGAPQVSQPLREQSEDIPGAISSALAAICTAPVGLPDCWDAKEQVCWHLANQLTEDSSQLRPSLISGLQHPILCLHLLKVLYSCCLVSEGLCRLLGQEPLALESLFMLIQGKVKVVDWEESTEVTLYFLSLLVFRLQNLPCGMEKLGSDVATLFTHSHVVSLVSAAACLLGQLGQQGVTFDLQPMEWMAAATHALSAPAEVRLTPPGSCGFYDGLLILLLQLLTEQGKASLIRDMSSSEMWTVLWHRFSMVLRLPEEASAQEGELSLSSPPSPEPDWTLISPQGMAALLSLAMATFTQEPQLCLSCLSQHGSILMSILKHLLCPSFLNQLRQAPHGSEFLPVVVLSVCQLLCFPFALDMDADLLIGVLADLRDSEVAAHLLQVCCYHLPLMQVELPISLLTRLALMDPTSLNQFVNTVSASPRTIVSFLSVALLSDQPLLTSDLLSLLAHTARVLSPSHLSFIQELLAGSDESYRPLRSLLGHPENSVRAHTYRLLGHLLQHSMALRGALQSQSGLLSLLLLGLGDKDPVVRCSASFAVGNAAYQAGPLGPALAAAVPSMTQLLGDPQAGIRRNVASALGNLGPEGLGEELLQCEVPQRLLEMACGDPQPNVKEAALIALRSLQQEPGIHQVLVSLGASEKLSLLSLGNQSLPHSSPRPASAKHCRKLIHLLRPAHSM

[10] = molecular target: T10, KinomeScan kinase panel (Homo sapiens, UniProt Q02763); settings: read-out: score (%)
T10 construct: purchased DiscoveRx (KinomeScan)
T10 sequence (Q02763 23-1124): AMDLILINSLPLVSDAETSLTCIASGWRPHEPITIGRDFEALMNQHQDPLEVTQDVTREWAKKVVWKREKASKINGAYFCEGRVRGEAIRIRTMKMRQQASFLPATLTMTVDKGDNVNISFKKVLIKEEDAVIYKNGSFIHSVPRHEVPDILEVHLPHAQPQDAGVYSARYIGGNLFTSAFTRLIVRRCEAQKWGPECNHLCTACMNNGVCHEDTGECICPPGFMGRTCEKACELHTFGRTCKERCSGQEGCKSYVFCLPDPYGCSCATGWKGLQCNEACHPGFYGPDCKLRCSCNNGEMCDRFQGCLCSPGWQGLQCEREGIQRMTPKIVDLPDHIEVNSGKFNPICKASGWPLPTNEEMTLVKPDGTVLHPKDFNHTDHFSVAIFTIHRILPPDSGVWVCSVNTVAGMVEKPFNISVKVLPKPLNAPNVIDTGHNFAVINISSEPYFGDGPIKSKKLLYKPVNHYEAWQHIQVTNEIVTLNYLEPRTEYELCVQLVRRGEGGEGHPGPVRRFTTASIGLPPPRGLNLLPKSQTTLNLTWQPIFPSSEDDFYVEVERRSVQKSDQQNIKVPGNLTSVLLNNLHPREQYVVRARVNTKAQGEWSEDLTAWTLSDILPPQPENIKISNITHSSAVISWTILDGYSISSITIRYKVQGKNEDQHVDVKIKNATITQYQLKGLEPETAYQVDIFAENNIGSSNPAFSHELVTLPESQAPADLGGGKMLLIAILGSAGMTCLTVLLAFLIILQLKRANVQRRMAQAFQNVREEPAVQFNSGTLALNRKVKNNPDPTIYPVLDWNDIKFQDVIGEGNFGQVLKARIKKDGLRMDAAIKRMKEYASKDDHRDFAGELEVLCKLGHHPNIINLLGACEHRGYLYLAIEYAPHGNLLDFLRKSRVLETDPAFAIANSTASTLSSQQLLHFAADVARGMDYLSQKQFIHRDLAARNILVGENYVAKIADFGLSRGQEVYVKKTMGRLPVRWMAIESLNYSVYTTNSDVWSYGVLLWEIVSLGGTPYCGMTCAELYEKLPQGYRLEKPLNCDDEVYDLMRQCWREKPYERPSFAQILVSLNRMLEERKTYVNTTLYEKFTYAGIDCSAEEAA

[11] = kinase RPS6KA5(Kin.Dom.1-N-terminal)
[12] = kinase RPS6KA5(Kin.Dom.2-C-terminal)

What does the source list for `CCN1CCN(Cc2ccc(NC(=O)c3ccc(C)c(NC(=O)c4cncc(-c5cccs5)c4)c3)cc2C(F)(F)F)CC1` [ALW-II-41-27]?
remaining binding at 10 µM ([1]; ROCK2, 10 µM): 18%; remaining binding at 10 µM [2]: 33%; remaining binding at 10 µM [3]: > 30%; remaining binding at 10 µM [4]: > 30%; remaining binding at 10 µM [5]: > 30%; remaining binding at 10 µM [6, 11]: 11%; remaining binding at 10 µM [6, 12]: > 30%; score (%) [7]: 0%; score (%) [8]: nb (Hits values higher than 30% were considered negative (no binding: nb)); remaining binding at 10 µM ([9]; kinase STK36, 10 µM): 0.2%; remaining binding at 10 µM ([10]; kinase TIE2, 10 µM): 0.45%

How did the remaining binding at 10 µM ([1]; ROCK2, 10 µM) turn out when `CCN1CCN(Cc2ccc(NC(=O)c3ccc(C)c(/C=C/c4cnc5[nH]ccc5c4Cl)c3)cc2C(F)(F)F)CC1` [HG-6-63-01, (E)-3-(2-(4-chloro-1H-pyrrolo[2,3-b]pyridin-5-yl)vinyl)-N-(4-((4-ethylpiperazin-1-yl)methyl)-3-(trifluoromethyl)phenyl)-4-methylbenzamide] was run?
Its remaining binding at 10 µM is greater than 30%.

What about the remaining binding at 10 µM [2] of the same molecule?
Its remaining binding at 10 µM is greater than 30%.

And the remaining binding at 10 µM [3]?
Its remaining binding at 10 µM is greater than 30%.

And the remaining binding at 10 µM [4]?
Its remaining binding at 10 µM is 27%.

What about the remaining binding at 10 µM [5] of the same molecule?
Its remaining binding at 10 µM is greater than 30%.

What about the remaining binding at 10 µM ([6]; RPS6KA5(Kin.Dom.1)) of the same molecule?
The remaining binding at 10 µM was greater than 30%.

And the remaining binding at 10 µM ([6]; RPS6KA5(Kin.Dom.2))?
Its remaining binding at 10 µM is greater than 30%.

What about the “score (%)” value [7] of the same molecule?
Its value is 0.15%.

And the “score (%)” value [8]?
The value was 8.2%.

What about the remaining binding at 10 µM ([9]; STK36, 10 µM) of the same molecule?
The remaining binding at 10 µM was 0.05%.

And the remaining binding at 10 µM ([10]; TIE2, 10 µM)?
Its remaining binding at 10 µM is 0.1%.

With `CCN1CCN(Cc2ccc(NC(=O)c3ccc(C)c(C#Cc4cccnc4)c3)cc2C(F)(F)F)CC1` [XMD15-44] as the molecule, how does the remaining binding at 10 µM ([1]; kinase ROCK2, 10 µM) read?
The remaining binding at 10 µM was 19%.

And the remaining binding at 10 µM [2]?
Its remaining binding at 10 µM is greater than 30%.

What about the remaining binding at 10 µM [3] of the same molecule?
Its remaining binding at 10 µM is 100%.

What about the remaining binding at 10 µM [4] of the same molecule?
The remaining binding at 10 µM was greater than 30%.

What about the remaining binding at 10 µM [5] of the same molecule?
The remaining binding at 10 µM was 81%.

What about the remaining binding at 10 µM [6, 11] of the same molecule?
Its remaining binding at 10 µM is 59%.

And the remaining binding at 10 µM [6, 12]?
Its remaining binding at 10 µM is 100%.

What about the “score (%)” value [7] of the same molecule?
The value was 0%.

And the “score (%)” value [8]?
The value was “nb (Hits values higher than 30% were considered negative (no binding: nb))”.

What about the remaining binding at 10 µM ([9]; kinase STK36, 10 µM) of the same molecule?
Its remaining binding at 10 µM is 0.4%.

What about the remaining binding at 10 µM ([10]; kinase TIE2, 10 µM) of the same molecule?
The remaining binding at 10 µM was 0.05%.
